Experimental data published in patent US9980967B1, “Method for overcoming drug resistance of EGFR mutation and cancerous stemness of human non-small cell lung carcinoma” (NATIONAL CHIAO TUNG UNIVERSITY, priority 2017, dated 2018).

Columns and labels:
[1] = tested on: H1975 cells with EGFR (T790M) mutation; assay: MTT cell viability assay in H1975 cells; assay type: cell-based, human; details: 0~40 μM for 24 hours, re-cultured 2 days, compared with Gefitinib
From the text: A549 (ATCC number: CCL-185) was a non-small cell lung carcinoma cell line which expressed wild type EGFR and with K-Ras mutation (G12S). H1975 (ATCC number: CRL-5908) was a non-small cell lung carcinoma cell line which expressed EGFR L858R/T790M mutation. Oct4 and Nanog overexpression in A549-ON presented the properties of cancer stem-like cells, as well as epithelial-mesenchymal transdifferentiation. PLC26 was lung cancer cells that separated from pleural effusion of a clinical lung cancer patient (IRB number: 103-011-E). A549-ON cells were cultured in DMEM medium. A549 and H1975 cells were maintained in RPMI-1640 medium. PLC26 cells were maintained in LHC-9 medium. DMEM and RPMI medium were supplemented with 10% fetal bovine serum (FBS), 100 units/ml penicillin, 100 μg/ml streptomycin and sodium bicarbonate. LHC-9 medium was supplemented with 5% FBS and 100 units/ml penicillin. These cells were cultured at 37° C. and 5% CO2 in a humidified incubator.
Please refer to FIG. 2. The H1975 cells were treated with 0˜40 μM of SP101 or Gefitinib for 24 hours. After treatment, the H1975 cells were re-cultured in fresh medium for 2 days. The cell viability was analyzed by MTT assays. The results were obtained from three independent experiments and the var represents the mean±S.E.M. ***p<0.001 indicates significant difference between Gefitinib and SP101 treated samples.

A549-ON cells = assay: Annexin V/PI apoptosis flow cytometry in A549-ON cells; assay type: cell-based, human; details: 30 μM
Procedure: At the end of treatment, apoptosis was measured by Annexin V-PI staining using flow cytometry analysis. The population of Annexin V+/PI− cells represents cells undergoing early apoptosis (low right), whereas the fraction of Annexin V+/PI+ cell are those undergoing late apoptosis (upper right). The representative flow data were shown from one of three separate experiments with similar findings.
The bar represents the mean±S.E.M. ***p<0.001 indicates significant difference between untreated and SP101 or Gefitinib treated samples.
We compared the apoptosis levels of SP101 and Gefitinib in cancer stem-like A549-ON cells by Annexin V and PI staining. Please refer to FIG. 19. […] Please refer to FIG. 20. The average of total apoptosis follows SP101 and Gefitinib in the A549-ON cells around 69.29% and 7.59%, respectively.

[2] = tested on: Survivin and cleaved Caspase 3 in xenograft tumor tissues; assay: Western blot and IHC of Survivin and cleaved Caspase 3 in xenograft tumor tissues; assay type: in vivo, nude mice
From the text: FIG. 11 is a result of IHC immunohistochemistry staining showing that SP101 enhanced Caspase 3 protein level in NSCLC tumor tissues. Representative photographs were by IHC staining the active Caspase 3 proteins in the tumor sections. Positive cells were visualized by DAB staining (brown), counterstain with nuclei by hematoxylin.
Please refer to FIG. 10. The xenograft tumor tissues from each group were homogenized and the total lysates were subjected to Western blot analysis using specific antibodies, including rabbit anti-Survivin, rabbit anti-cleaved Caspase 3 and mouse anti-actin. Representative immunoblotting data were shown from one of two separate experiments with similar findings. Actin was an internal control protein. SP101 reduced Survivin protein level; meanwhile, SP101 induced the apoptotic protein level of cleaved Caspase 3.

[3] = xenograft tumor tissues, Western blot

Question: With `CCCCCCCCCCCCOC(=O)CCC(=O)N1CCN(CCCOc2cc3c(Nc4ccc(F)c(Cl)c4)ncnc3cc2OC)CC1` [SP101, dodecyl 4-(4-(3-(4-(3-chloro-4-fluorophenylamino)-7-methoxyquinazolin-6-yloxy)propyl)piperazin-1-yl)-4-oxobutanoate] as the compound, how does the cell viability inhibition [1] read?
Answer: significantly higher in the SP101 group than in the Gefitinib group

Question: And the “late apoptosis cells, compared with Gefitinib” value (A549-ON cells)?
Answer: induced more late apoptosis cells than Gefitinib

Question: And the “levels of Annexin V+/PI− cells (early apoptosis) and Annexin V+/PI+ cells (late apoptosis)” value (A549-ON cells)?
Answer: significantly increased

Question: And the “average of total apoptosis” value (A549-ON cells; early and late apoptosis, flow cytometry)?
Answer: around 69.29%

Question: And the Survivin protein level [2, 3]?
Answer: reduced

Question: And the “apoptotic protein level of cleaved Caspase 3” value [2, 3]?
Answer: induced

Question: What about the “reduction of Survivin protein and increasing of cleaved Caspase 3 protein level, compared with Gefitinib” value [2, 3] of the same compound?
Answer: more potent

Question: What about the “active forms of Caspase 3 protein” value ([2]; xenografted NSCLC tumors, IHC staining, compared with control and Gefitinib groups) of the same compound?
Answer: significantly induced
